Source: ChEMBL document CHEMBL1201862, “PubChem BioAssay data set” (2004)
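48-hour exposure; five concentrations; linearly interpolated endpoints. The concentration for 50% growth inhibition is given as GI50.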 Activity calls are given as the source filed them. Rule as the data show it: active = GI50 up to about 1.1 µM and inactive = higher.

Legend:
Experiment in all cases: NCI-60 cell line screen, 48 h
786-0 = tested on: 786-0
ACHN = tested on: ACHN
HCT-15 = tested on: HCT-15
HL-60 = tested on: HL-60
HOP-62 = tested on: HOP-62
IGROV-1 = tested on: IGROV-1
KM12 = tested on: KM12
MDA-MB-231 = tested on: MDA-MB-231
MDA-N = tested on: MDA-N
MOLT-4 = tested on: MOLT-4
NCI-H226 = tested on: NCI-H226
NCI-H460 = tested on: NCI-H460
NCI/ADR-RES = tested on: NCI/ADR-RES
OVCAR-3 = tested on: OVCAR-3
OVCAR-5 = tested on: OVCAR-5
SF-539 = tested on: SF-539
SK-MEL-28 = tested on: SK-MEL-28
SN12C = tested on: SN12C
U-251 = tested on: U-251

SMILES	GI50 (786-0)	GI50 (ACHN)	GI50 (HCT-15)	GI50 (HL-60)	GI50 (HOP-62)	GI50 (IGROV-1)	GI50 (KM12)	GI50 (MDA-MB-231)	GI50 (MDA-N)	GI50 (MOLT-4)	GI50 (NCI-H226)	GI50 (NCI-H460)	GI50 (NCI/ADR-RES)	GI50 (OVCAR-3)	GI50 (OVCAR-5)	GI50 (SF-539)	GI50 (SK-MEL-28)	GI50 (SN12C)	GI50 (U-251)
Cc1cccc(CNc2[nH]cnc3nncc2-3)c1	> 100 µM (inactive)	75.7 µM (inactive)	> 100 µM	> 100 µM (inactive)	> 100 µM (inactive)	64.4 µM (inactive)	> 100 µM (inactive)	> 100 µM (inactive)	> 100 µM (inactive)	58.2 µM (inactive)	49.5 µM (inactive)	> 100 µM (inactive)	90.2 µM (inactive)	> 100 µM (inactive)	40.4 µM (inactive)	> 100 µM (inactive)	> 100 µM (inactive)	72.8 µM (inactive)	> 100 µM (inactive)
CSc1nc(Br)nc2ncn(C3CC(Oc4ccc(C)cc4)C(COc4ccc(C)cc4)O3)c12 (stereo not given)	> 100 µM (inactive)	28.2 µM (inactive)	> 100 µM	> 100 µM (inactive)	> 100 µM (inactive)	> 100 µM (inactive)	> 100 µM (inactive)	> 100 µM (inactive)	> 100 µM (inactive)	> 100 µM (inactive)	> 100 µM (inactive)	> 100 µM (inactive)	> 100 µM (inactive)	> 100 µM (inactive)	> 100 µM (inactive)	28.9 µM (inactive)	> 100 µM (inactive)	> 100 µM (inactive)	> 100 µM (inactive)
O=C1CC(Br)c2c(Br)sc(Br)c21 (stereo not given)	16.3 µM (inactive)	17.7 µM (inactive)	16.9 µM	14.2 µM (inactive)	20.9 µM (inactive)	16.6 µM (inactive)	22.9 µM (inactive)	18.9 µM (inactive)	15.5 µM (inactive)	0.906 µM (active)	29.8 µM (inactive)	17.3 µM (inactive)	34.5 µM (inactive)	18.9 µM (inactive)	17.9 µM (inactive)	24.5 µM (inactive)	32 µM (inactive)	15.6 µM (inactive)	17.3 µM (inactive)
C=CC(O)(CBr)CCC(Br)C(=C)C (stereo not given)	> 10 µM (inactive)	> 10 µM (inactive)	> 10 µM	> 10 µM (inactive)	> 10 µM (inactive)	> 10 µM (inactive)	> 10 µM (inactive)	> 10 µM (inactive)	> 10 µM (inactive)	> 10 µM (inactive)	> 10 µM (inactive)	> 10 µM (inactive)	> 10 µM (inactive)	> 10 µM (inactive)	> 10 µM (inactive)	> 10 µM (inactive)	> 10 µM (inactive)	> 10 µM (inactive)	> 10 µM (inactive)
Cc1cc(S(=O)(=O)/N=C(\NN)NCC(=O)NN)c(S)cc1Cl	> 10 µM (inactive)	> 10 µM (inactive)	> 10 µM	> 10 µM (inactive)	> 10 µM (inactive)	> 10 µM (inactive)	> 10 µM (inactive)	> 10 µM (inactive)	> 10 µM (inactive)	> 10 µM (inactive)	> 10 µM (inactive)	> 10 µM (inactive)	> 10 µM (inactive)	> 10 µM (inactive)	> 10 µM (inactive)	> 10 µM (inactive)	> 10 µM (inactive)	> 10 µM (inactive)	> 10 µM (inactive)
Cc1cnoc1/N=C1\C=C(O)C(=O)c2ccccc21	53.2 µM (inactive)	21.8 µM (inactive)	12.2 µM	10 µM (inactive)	10 µM (inactive)	22.8 µM (inactive)	11.9 µM (inactive)	25.6 µM (inactive)	1.26 µM (inactive)	17.4 µM (inactive)	35.3 µM (inactive)	6.32 µM (inactive)	8.45 µM (inactive)	5.26 µM (inactive)	10.9 µM (inactive)	21.4 µM (inactive)	29.9 µM (inactive)	1.77 µM (inactive)	1.79 µM (inactive)
COC(=O)[C@]12CC[C@H]3CN(S(=O)(=O)c4ccc(C)cc4)[C@H]([C@H]31)[C@H](c1ccco1)N2S(=O)(=O)c1ccc(C)cc1	59.7 µM (inactive)	39.7 µM (inactive)	34 µM	30.2 µM (inactive)	66.4 µM (inactive)	35.8 µM (inactive)	32.9 µM (inactive)	55.8 µM (inactive)	24.7 µM (inactive)	31.1 µM (inactive)	42.5 µM (inactive)	35.8 µM (inactive)	29 µM (inactive)	56.2 µM (inactive)	> 100 µM (inactive)	> 100 µM (inactive)	51.4 µM (inactive)	37.6 µM (inactive)	64.3 µM (inactive)
C=C(COCO)C(C)=O	12 µM (inactive)	15.7 µM (inactive)	21.4 µM	3.48 µM (inactive)	> 47.1 µM (inactive)	20.1 µM (inactive)	> 40.3 µM (inactive)	18.8 µM (inactive)	16.9 µM (inactive)	2.66 µM (inactive)	> 61 µM (inactive)	22 µM (inactive)	22.4 µM (inactive)	11.6 µM (inactive)	20.5 µM (inactive)	6.24 µM (inactive)	16.8 µM (inactive)	18.4 µM (inactive)	24.5 µM (inactive)
O=C(CCCN1CCC2(CC1)CC(c1ccccc1)OC2=O)c1ccc(F)cc1 (stereo not given)	24.1 µM (inactive)	54.6 µM (inactive)	37.2 µM	25.6 µM (inactive)	29.6 µM (inactive)	> 100 µM (inactive)	35 µM (inactive)	84.5 µM (inactive)	49.4 µM (inactive)	28.3 µM (inactive)	53.7 µM (inactive)	48.1 µM (inactive)	92 µM (inactive)	33.3 µM (inactive)	45.9 µM (inactive)	28.4 µM (inactive)	39.4 µM (inactive)	48.6 µM (inactive)	74.5 µM (inactive)
C=CCNC(=O)CN(CC(=O)O)C1CCCCC1N(CC(=O)O)CC(=O)O (stereo not given)	> 100 µM (inactive)	> 100 µM (inactive)	> 100 µM	> 100 µM (inactive)	> 100 µM (inactive)	> 100 µM (inactive)	> 100 µM (inactive)	> 100 µM (inactive)	> 100 µM (inactive)	> 100 µM (inactive)	> 100 µM (inactive)	> 100 µM (inactive)	> 100 µM (inactive)	> 100 µM (inactive)	> 100 µM (inactive)	> 100 µM (inactive)	> 100 µM (inactive)	> 100 µM (inactive)	> 100 µM (inactive)
COc1cc(OC)c2c(c1)OC(c1cccnc1)C(c1ccccc1)C2=O (stereo not given)	> 100 µM (inactive)	> 100 µM (inactive)	> 100 µM	> 100 µM (inactive)	> 100 µM (inactive)	> 100 µM (inactive)	> 100 µM (inactive)	> 100 µM (inactive)	42.7 µM (inactive)	> 100 µM (inactive)	> 100 µM (inactive)	34 µM (inactive)	72.1 µM (inactive)	86.3 µM (inactive)	> 100 µM (inactive)	> 100 µM (inactive)	> 100 µM (inactive)	> 100 µM (inactive)	> 100 µM (inactive)
O/N=C1/CC2(N3CCOCC3)C3CC/C(=N\O)C2CC1(Cc1ccccc1)C3 (stereo not given)	> 100 µM (inactive)	> 100 µM (inactive)	> 100 µM	67 µM (inactive)	> 100 µM (inactive)	> 100 µM (inactive)	> 100 µM (inactive)	> 100 µM (inactive)	> 100 µM (inactive)	> 100 µM (inactive)	> 100 µM (inactive)	> 100 µM (inactive)	> 100 µM (inactive)	> 100 µM (inactive)	> 100 µM (inactive)	> 100 µM (inactive)	> 100 µM (inactive)	> 100 µM (inactive)	> 100 µM (inactive)
O=c1oc2cc(O)ccc2cc1-c1nc2ccccc2o1	30.5 µM (inactive)	32.3 µM (inactive)	34.4 µM	23.8 µM (inactive)	23.3 µM (inactive)	29.1 µM (inactive)	25.8 µM (inactive)	35.6 µM (inactive)	40.8 µM (inactive)	24.7 µM (inactive)	61.5 µM (inactive)	30.5 µM (inactive)	36.4 µM (inactive)	19.1 µM (inactive)	> 100 µM (inactive)	58.2 µM (inactive)	43.5 µM (inactive)	49.7 µM (inactive)	28.7 µM (inactive)
O=c1c(C(c2cccc(C(c3c(O)oc4ccccc4c3=O)c3c(O)oc4ccccc4c3=O)c2)c2c(O)oc3ccccc3c2=O)c(O)oc2ccccc12	17.7 µM (inactive)	36.6 µM (inactive)	63.8 µM	21.7 µM (inactive)	30.3 µM (inactive)	34 µM (inactive)	30.5 µM (inactive)	20.8 µM (inactive)	66.4 µM (inactive)	29.2 µM (inactive)	44.7 µM (inactive)	75.2 µM (inactive)	> 100 µM (inactive)	35.3 µM (inactive)	> 100 µM (inactive)	19.8 µM (inactive)	> 100 µM (inactive)	22.1 µM (inactive)	26.3 µM (inactive)
Nc1ncc(Cc2ccc3c(c2)OCO3)c(N)n1	> 100 µM (inactive)	> 100 µM (inactive)	> 100 µM	73.5 µM (inactive)	> 100 µM (inactive)	> 100 µM (inactive)	> 100 µM (inactive)	> 100 µM (inactive)	> 100 µM (inactive)	> 100 µM (inactive)	> 100 µM (inactive)	> 100 µM (inactive)	> 100 µM (inactive)	> 100 µM (inactive)	> 100 µM (inactive)	> 100 µM (inactive)	> 100 µM (inactive)	> 100 µM (inactive)	> 100 µM (inactive)
